Assay [1] has as its system E. faecium ATCC51559 MDR. As to the kind of experiment: MIC by standard micro dilution method (NCCLS M7-A5). Particulars: Enterococcus faecium, Mueller-Hinton medium (cation-adjusted), 16-24 h at 35° C., read-out: MIC, microorganism (3) E. faecium ATCC51559 MDR. The format is cell-based.
Assay [2] deals with E. faecium LNZ-R LR-4. The assay is described as above. It counts as cell-based. The conditions noted are these: Enterococcus faecium; linezolid-resistant strain; Mueller-Hinton medium, 16-24 h at 35° C.; read-out: MIC, microorganism (9) E. faecium LNZ-R LR-4.
The test system of assay [3] is M. catarrhalis HCI-78. The description is as above. The format is cell-based. Particulars: Moraxella catarrhalis, HCI78; 20-24 h at 35° C., 5% CO2; read-out: MIC, microorganism (8) M. catarrhalis HCI-78.
Assay [4] has as its system H. influenzae ATCC49247. The description is as above. The format is cell-based. Particulars: Haemophilus influenzae, read-out: MIC, microorganism (6) H. influenzae ATCC49247.
The subject of assay [5] is S. aureus ATCC25923 MS. The assay is described as above. It counts as cell-based. Particulars: Staphylococcus aureus, Mueller-Hinton medium (cation-adjusted), 16-24 h at 35° C., read-out: MIC, microorganism (1) S. aureus ATCC25923 MS.
Assay [6] deals with S. aureus LNZ-R 432. Described as above. The format is cell-based. Particulars: Staphylococcus aureus, LNZR432; linezolid-resistant strain; Mueller-Hinton medium, 16-24 h at 35° C.; read-out: MIC, microorganism (4) S. aureus LNZ-R 432.
For assay [7], the system named is S. pneumoniae ATCC49619 PR. The assay is described as above. The format is cell-based. The conditions noted are these: Streptococcus pneumoniae, 20-24 h at 35° C., 5% CO2, read-out: MIC, microorganism (2) S. pneumoniae ATCC49619 PR.
For assay [8], the system named is B. fragilis sp. fragilis ATCC25285. The description is as above. It counts as cell-based. Particulars: Bacteroides fragilis, anaerobic strain, Brucella Blood medium supplemented, read-out: MIC, microorganism (7) B. fragilis sp. fragilis ATCC25285.
In assay [9] the test system is S. haemolyticus. The description is as above. The format is cell-based. The conditions noted are these: Staphylococcus haemolyticus; Mueller-Hinton medium (cation-adjusted), 16-24 h at 35° C.; read-out: MIC, microorganism (5) S. haemolyticus.
Assay [10] concerns Moraxella, Pasteurella and Bacteroides spp. The conditions noted are these: background art; cited from earlier work.
The test system of assay [11] is other Gram-negative bacteria. Particulars: background art; cited from earlier work.

This is an account of results in patent US20110136829A1, “3-(N-HETEROCYCLYL)-PYRROLIDINYL-PHENYL-OXAZOLIDINONES AS ANTIBACTERIAL AGENTS” (FERRER INTERNACIONAL, S.A., priority 2008, published 2011).

Molecules are shown by their SMILES. Converted amounts (≈) assume the structure as drawn.

Take `CC(=O)NC[C@H]1CN(c2ccc(N3CCC(n4cc(-c5ccc([N+](=O)[O-])cc5)cn4)C3)c(F)c2)C(=O)O1` (stereo partly drawn) [Ex. 19, N-[(5S)-3-(3-fluoro-4-{3-[4-(4-nitrophenyl)-pyrazol-1-yl]pyrrolidin-1-yl}-phenyl)-2-oxo-5-oxazolidinylmethyl]acetamide]: the MIC in assay [1] was determined as 0.25 µg/mL (≈ 0.492 µM); in assay [2], 64 µg/mL (≈ 126 µM); in [3] it was 1 µg/mL (≈ 1.97 µM); in [4], 4 µg/mL (≈ 7.87 µM); in assay [5] it was 0.5 µg/mL (≈ 0.983 µM); in assay [6] it was 2 µg/mL (≈ 3.93 µM). For the same compound, the values for the MIC in [7] and in assay [8] were 0.125 µg/mL (≈ 0.246 µM) and 1 µg/mL (≈ 1.97 µM), respectively.

With `CC(=O)NC[C@H]1CN(c2ccc(N3CCC(n4cc(-c5ccncn5)cn4)C3)c(F)c2)C(=O)O1` (stereo partly drawn) [Ex. 11, N-((5S)-3-{3-fluoro-4-[3-(4-pyrimidin-4-yl-pyrazol-1-yl)pyrrolidin-1-yl]-phenyl}-2-oxo-5-oxazolidinylmethyl)acetamide], the MIC in assay [1] amounted to 0.25 µg/mL (≈ 0.537 µM); in [2] it was 8 µg/mL (≈ 17.2 µM); in [3] it was 0.5 µg/mL (≈ 1.07 µM); in assay [4], 4 µg/mL (≈ 8.59 µM); in assay [5], 0.5 µg/mL (≈ 1.07 µM); in [6], 2 µg/mL (≈ 4.3 µM). Also, the MIC in assay [7] worked out at 0.125 µg/mL (≈ 0.269 µM); in assay [8], 0.5 µg/mL (≈ 1.07 µM).

For `CC(=O)NC[C@H]1CN(c2ccc(N3CCC(n4nnc(-c5cccs5)n4)C3)c(F)c2)C(=O)O1` (stereo partly drawn) [Ex. 15, N-((5S)-3-{3-fluoro-4-[3-(5-thiophen-2-yl-tetrazol-2-yl)pyrrolidin-1-yl]-phenyl}-2-oxo-5-oxazolidinylmethyl)acetamide], the MIC in assay [1] is 0.25 µg/mL (≈ 0.53 µM); in [2], 8 µg/mL (≈ 17 µM); in [3], 2 µg/mL (≈ 4.24 µM); in assay [4], 8 µg/mL (≈ 17 µM); in assay [5], 0.5 µg/mL (≈ 1.06 µM); in assay [6] it was 4 µg/mL (≈ 8.48 µM). For the same compound, the values for the MIC in [7] and in assay [8] were 0.125 µg/mL (≈ 0.265 µM) and 0.5 µg/mL (≈ 1.06 µM), respectively.

For the compound `CC(=O)NC[C@H]1CN(c2ccc(N3CCC(n4ccnn4)C3)c(F)c2)C(=O)O1` (stereo partly drawn) [Ex. 3, N-((5S)-3-{3-fluoro-4-[3-(1-triazolyl)pyrrolidin-1-yl]-phenyl}-2-oxo-5-oxazolidinylmethyl)acetamide], the MIC in assay [1] came out at 0.5 µg/mL (≈ 1.29 µM); in assay [2] it was 8 µg/mL (≈ 20.6 µM); in [3] it was 1 µg/mL (≈ 2.57 µM); in assay [9], 4 µg/mL (≈ 10.3 µM); in assay [4], 4 µg/mL (≈ 10.3 µM); in [5] it was 1 µg/mL (≈ 2.57 µM). For the same compound, the MIC was determined as 16 µg/mL (≈ 41.2 µM) in [6], 1 µg/mL (≈ 2.57 µM) in [7] and 1 µg/mL (≈ 2.57 µM) in assay [8].

Consider `CC(=O)NC[C@H]1CN(c2ccc(N3CCC(n4cc(-c5ccncc5)cn4)C3)c(F)c2)C(=O)O1` (stereo partly drawn) [Ex. 18, N-((5S)-3-{3-fluoro-4-[3-(4-pyridin-4-yl-pyrazol-1-yl)pyrrolidin-1-yl]-phenyl}-2-oxo-5-oxazolidinylmethyl)acetamide], for which the MIC in [1] is 0.25 µg/mL (≈ 0.538 µM); in [2], 8 µg/mL (≈ 17.2 µM); in assay [3], 0.5 µg/mL (≈ 1.08 µM); in [4], 4 µg/mL (≈ 8.61 µM); in [5] it was 0.5 µg/mL (≈ 1.08 µM); in [6], 2 µg/mL (≈ 4.31 µM). Moreover, the results for the MIC in [7] and in assay [8] were 0.06 µg/mL (≈ 0.129 µM) and 0.25 µg/mL (≈ 0.538 µM), respectively.

Regarding `CC(=O)NC[C@H]1CN(c2ccc(N3CCC(n4cc(Br)cn4)C3)c(F)c2)C(=O)O1` (stereo partly drawn) [Ex. 17, N-((5S)-3-{3-fluoro-4-[3-(4-bromopyrazol-1-yl)pyrrolidin-1-yl]-phenyl}-2-oxo-5-oxazolidinylmethyl)acetamide], the MIC in assay [1] stood at 0.5 µg/mL (≈ 1.07 µM); in assay [2], 1 µg/mL (≈ 2.14 µM); in assay [3], 2 µg/mL (≈ 4.29 µM); in assay [9] it was 1 µg/mL (≈ 2.14 µM); in assay [4], 1 µg/mL (≈ 2.14 µM); in assay [5], 1 µg/mL (≈ 2.14 µM). Besides, the MIC turned out to be 8 µg/mL (≈ 17.2 µM) in assay [6], 0.25 µg/mL (≈ 0.536 µM) in assay [7] and 0.5 µg/mL (≈ 1.07 µM) in assay [8].

With `CC(=O)NC[C@H]1CN(c2ccc(N3CCC(n4ccc(C(F)(F)F)n4)C3)c(F)c2)C(=O)O1` (stereo partly drawn) [Ex. 26, N-((5S)-3-{3-fluoro-4-[3-(3-trifluoromethyl-pyrazol-1-yl)pyrrolidin-1-yl]-phenyl}-2-oxo-5-oxazolidinylmethyl)acetamide], the MIC in [1] is 1 µg/mL (≈ 2.2 µM); in assay [2] it was 2 µg/mL (≈ 4.39 µM); in assay [3], 2 µg/mL (≈ 4.39 µM); in assay [9], 1 µg/mL (≈ 2.2 µM); in assay [4], 1 µg/mL (≈ 2.2 µM); in [5] it was 2 µg/mL (≈ 4.39 µM). Also, the MIC in [6] came out at 16 µg/mL (≈ 35.1 µM); in assay [7] it was 0.5 µg/mL (≈ 1.1 µM); in assay [8], 1 µg/mL (≈ 2.2 µM).

For the compound `CC(=O)NC[C@H]1CN(c2ccc(N3CCOCC3)c(F)c2)C(=O)O1` [Linezolid, N-[[(5S)-3-[3-fluoro-4-(4-morpholinyl)phenyl]-2-oxo-5-oxazolidinyl]methyl]acetamide, reference compound], the MIC in assay [1] is 0.5 µg/mL (≈ 1.48 µM); in assay [2] it was 64 µg/mL (≈ 190 µM); in assay [3] it was 2 µg/mL (≈ 5.93 µM); in assay [9] it was 128 µg/mL (≈ 379 µM); in assay [4], 16 µg/mL (≈ 47.4 µM); in assay [5] it was 1 µg/mL (≈ 2.96 µM). Also, the MIC in assay [6] was 16 to 32 µg/mL (≈ 47.4 to 94.9 µM); in [7] it was 1 µg/mL (≈ 2.96 µM); in [8], 2 µg/mL (≈ 5.93 µM). Besides, the “MICS for Moraxella, Pasteurella and Bacteroides spp.” value in assay [10] is 2 to 8 µg/mL. The “susceptibility of other Gram-negative bacteria” value in [11] is reported as “resistant”.

`CC(=O)NC[C@H]1CN(c2ccc(N3CCC(n4cc([N+](=O)[O-])cn4)C3)c(F)c2)C(=O)O1` (stereo partly drawn) [Ex. 9, N-((5S)-3-{3-fluoro-4-[3-(4-nitropyrazol)pyrrolidinyl]-phenyl}-2-oxo-5-oxazolidinylmethyl)acetamide]: the MIC worked out at 1 µg/mL (≈ 2.31 µM) in assay [1]; 4 µg/mL (≈ 9.25 µM) in assay [2]; 1 µg/mL (≈ 2.31 µM) in [3]; 1 µg/mL (≈ 2.31 µM) in assay [9]; 2 µg/mL (≈ 4.63 µM) in assay [4]; 1 µg/mL (≈ 2.31 µM) in assay [5]. Moreover, the MIC is 8 µg/mL (≈ 18.5 µM) in [6], 0.25 µg/mL (≈ 0.578 µM) in assay [7] and 0.5 µg/mL (≈ 1.16 µM) in assay [8].
